From US6500405B1, “Use of certain amides as probes for detection of antitubulin activity and resistance monitoring” (Dow AgroSciences LLC, priority 1996, dated 2002)
Each block holds one molecule with its values, some of them ahead of it.

Key:
[1] = molecular target: tubulin in Phytophthora capsici (Phytophthora capsici, UniProt A4ZYP2); assay: Binding assay, tritiated compound 1 as probe, germinated zoospore cysts of Phytophthora capsici; details: 1 hour preincubation; for IC50: 20 minutes with tritiated compound 1, read-out: IC50 (concentration required to inhibit binding of the radioligand by 50%) (converted)
Protocol: The effect of zarilamide and compounds 7, 8, 16, 19, 23 and 27 described in Table 1 on binding of compound 1 to tubulin in Phytophthora capsici is shown in this example.
Zoospores of P. capsici were prepared as follows. Petri plates, 9 cm in diameter, containing 15 ml of V-8 agar were inoculated with a mycelial plug of P. capsici and incubated for 4 days in the dark at 25° C., then placed under continuous fluorescent light for 3 days to induce sporulation. To induce zoospore release, 15 ml of sterile water was added to each plate. The plates were incubated at room temperature for 10 minutes, followed by 20 minutes at 4° C., and finally returned to room temperature for 15 minutes. The zoospore-containing fluid was then removed from each plate and adjusted to a density of 5×10^5 zoospores per ml. Assay tubes containing germinated zoospores cysts were prepared by adding 100 μl of zoospore suspension to 400 μl of asparagine-sucrose medium in 16×1.25 cm polypropylene tubes, which were then loosely capped and incubated on a gyrotary shaker at 120 rpm for 24 hours at 26° C.
Tubes containing germinated zoospore cysts then received 2.5 μl of DMSO (control) or 2.5 μl of test compound dissolved in DMSO. Each compound was tested at a series of concentrations. Tubes were incubated with shaking at 26° C. for 1 hour, then 2.5 μl of a 40 μM solution of tritium-labeled compound 1 in DMSO were added. Vials were incubated with shaking at 26° C. for 20 minutes, then binding of the radioligand was stopped by adding 1.5 ml of ice-cold unlabeled 133 μM compound 1, and transferring the tubes to an ice bath. Following centrifugation at 3,400 rpm for 3 minutes, the supernatant was discarded and the pelleted cells were resuspended in 2 ml of ice-cold 10% trichloroacetic acid. Samples were kept for 1 hour in an ice bath, centrifuged again, and the cells resuspended in 2 ml of ice-cold ethanol. After incubation for a further 1 hour in an ice-bath, an additional 4 ml of ice-cold ethanol was added to each tube and the cells were collected by filtration on glass fiber filters in a Brandell cell harvester (Brandel Biomedical Research and Development Laboratories, Inc., Gaithersburg, Md.), and washed twice with 4 ml of ice-cold ethanol. The filters with washed cells were transferred to scintillation vials and 0.1 ml of water was added followed by 1 ml of Protosol™ (Dupont NEN Research Products). The vials were incubated at 60° C. for 30 minutes and cooled to room temperature. Ten ml of Econofluor™ scintillation fluid (Dupont NEN Research Products) was added, and the samples were counted in a scintillation counter to determine the amount of bound radioactivity. IC50 values for each test compound (defined as the concentration required to inhibit binding of the radioligand by 50% as compared to controls lacking the test compound) were determined from dose-response curves and are presented in Table 9.

[2] = tested on: tubulin in tobacco suspension-cultured cells; assay: Whole cell binding assay, tritiated compound 1 as probe, tobacco suspension-cultured cells; details: for Binding of radioligand (% control): 2 hours preincubation, 20 minutes with tritiated compound 1; for Effect on binding of the radioligand (in words): tobacco cells, tritiated compound 1
Protocol: The effects of various antitubulin compounds from different chemical classes on binding of compound 1 to tubulin in tobacco suspension-cultured cells is shown in this example.
Aliquots (2 ml) of suspension-cultured tobacco cells grown as described in Example 2 were added to 25 ml capacity glass vials. Each vial then received 5 μl of DMSO (control) or 5 μl of an antitubulin compound dissolved in DMSO. Vials were incubated with shaking at 27° C. for 2 hours, then 5 μl of a 100 μM solution of tritium-labeled compound 1 in DMSO was added. Vials were incubated with shaking at 27° C. for 20 minutes, then binding of the radioligand was stopped by adding 5 μl of unlabeled 40 mM compound 1. The samples were incubated with shaking at 27° C. for a further 20 minutes, then transferred to 15 ml capacity polypropylene centrifuge tubes in an ice bath. Each vial was rinsed with 2 ml ice-cold growth medium (described in example 2) and the rinse solution was then added to the rest of the sample. Following centrifugation at 4° C. for 3 minutes at 2,500 rpm the supernatant was discarded and the pelleted cells were resuspended in 4 ml of ice-cold 10% trichloroacetic acid. Samples were kept for 1 hour in an ice bath, centrifuged again, and the cells resuspended in 4 ml of ice-cold ethanol. After incubation for a further 1 hour in an ice-bath the cells were collected by filtration on glass fiber filters and washed twice with 10 ml of ice-cold ethanol. The filters with washed cells were transferred to scintillation vials, 10 ml of Hydrofluor™ scintillation fluid (National Diagnostics, Manville, N.J.) was added to each, and the samples were counted in a scintillation counter to determine the amount of bound radioactivity. The effects of different antitubulin compounds on binding of the radioligand are presented in Table 7 with the amounts of radioligand bound in the presence of each antitubulin compound expressed as a percentage of the amount of radioligand bound in the DMSO control.

[3] = tested on: tubulin in colon cancer cell line HCT-116; assay: Whole cell binding assay, tritiated S-enantiomer of compound 2 as probe, colon cancer cell line HCT-116; details: for Binding of radioligand (% control): HCT-116, 1 hour preincubation, 1 hour with radioligand
Protocol: Effect of antitubulin compounds on binding of the tritiated S-enantiomer of compound 2 to tubulin in a whole cell binding assay using the colon cancer cell line HCT-116 is shown by this example.
The colon cancer cell line HCT-116 (obtained from the American Type Culture Collection) was cultured in 75 cm^2 flasks containing McCoy's 5a Modified Medium with 10% heat-inactivated fetal bovine serum, 50 U/ml of penicillin G and 50 U/ml of streptomycin sulfate. A cell suspension was prepared by trypsinization of the culture, and adjusted to a density of 10^6 cells/ml by dilution into incomplete medium (medium lacking serum, penicillin G and streptomycin). Aliquots (150 μl) of cell suspension were added to wells of 96-well glass fiber filter plates (Millipore Multiscreen® plates, 1 μm glass fiber, Type B). Wells then received 30 μl of a solution of the test antitubulin compound in incomplete medium/DMSO mixture (8.5:1, v/v) or 30 μl of the incomplete medium/DMSO mixture alone (control). After mixing, the plates were incubated at 37° C. for 1 hour, then 25 μl of 0.8 μM tritium-labeled S-enantiomer of compound 2 was added to each well. After mixing, the plates were incubated at 37° C. for 1 hour, then binding of the radioligand to tubulin was stopped by adding 50 μl of 100 μM unlabeled compound 2. The fluid was removed from the plate by vacuum filtration through the glass fiber, then 100 μl of ice-cold 10% trichloroacetic acid was added to each well. The plates were incubated for 1 h at 4° C., then the fluid was removed by filtration. Ice-cold ethanol (250 μl) was added to each well, the plates incubated for 1 h at 4° C., then the ethanol was removed by filtration. Wells were washed 4 more times with 250 μl of ice-cold ethanol. After drying the plates at 37° C. for 20 min, the glass fiber filters were punched out of the wells into scintillation vials, 5 ml of scintillation fluid was added to each vial, and the samples were counted in a scintillation counter to determine the amount of bound radioactivity. The effects of different antitubulin compounds on binding of the radioligand are presented in Table 11 with the amounts of radioligand bound in the presence of each antitubulin compound expressed as a percentage of the amount of radioligand bound in the control.

[4] = tested on: tubulin in Phytophthora capsici mycelium; assay: Whole cell binding assay, tritiated compound 1 as probe, Phytophthora capsici mycelium; details: 1 hour preincubation, 20 min with tritiated compound 1
Protocol: The effect of paclitaxel on binding of compound 1 to tubulin in Phytophthora capsici is shown in this example.
A liquid mycelial shake culture of P. capsici in asparagine-sucrose medium was used to prepare a homogeneous suspension of fungal material for binding assays. Asparagine-sucrose medium (100 ml) was inoculated with mycelial plugs cut from cultures grown on V-8 agar, and incubated at 26° C. on a gyrotary shaker for 48 hours. The culture was homogenized in a blender, and 30 ml of the homogenate subcultured into 100 ml of fresh medium, which was then incubated at 26° C. on a gyrotary shaker for 17 hours. The resulting mycelium was recovered from the medium by centrifugation and resuspended in 1170 ml of fresh medium. Aliquots (2 ml) of this suspension were added to 25 ml capacity glass vials. Each vial then received 5 μl of DMSO (control) or 5 μl of paclitaxel dissolved in DMSO. Vials were incubated with shaking at 26° C. for 1 hour, then 5 μl of a 100 μM solution of tritium-labeled compound 1 in DMSO was added. Vials were incubated with shaking at 26° C. for 20 min, then binding of the radioligand was stopped by adding 5 μl of unlabeled 40 mM compound 1. The samples were incubated with shaking at 27° C. for a further 20 minutes, then transferred to 15 ml capacity centrifuge tubes in an ice bath. Each vial was rinsed with 2 ml ice-cold medium which was then added to the rest of the sample. Following centrifugation at 4° C. for 5 minutes at 3,400 rpm, the supernatant was discarded and the pelleted cells were resuspended in 4 ml of ice-cold 10% trichloroacetic acid. Samples were kept for 1 hour in an ice bath, centrifuged again, and the cells resuspended in 4 ml of ice-cold ethanol. After incubation for a further 2 hours in an ice-bath the cells were collected by filtration on glass fiber filters and washed twice with 10 ml of ice-cold ethanol. The filters with washed cells were transferred to scintillation vials, 10 ml of Hydrofluor™ scintillation fluid was added, and the samples were counted in a scintillation counter to determine the amount of bound radioactivity. The effect of paclitaxel at various concentrations on binding of the radioligand are presented in Table 8, with the amounts of radioligand bound in the presence of paclitaxel expressed as a percentage of the amount of radioligand bound in the DMSO control.

tubulin in Phytophthora capsici, sequence (A4ZYP2 entry or part of it): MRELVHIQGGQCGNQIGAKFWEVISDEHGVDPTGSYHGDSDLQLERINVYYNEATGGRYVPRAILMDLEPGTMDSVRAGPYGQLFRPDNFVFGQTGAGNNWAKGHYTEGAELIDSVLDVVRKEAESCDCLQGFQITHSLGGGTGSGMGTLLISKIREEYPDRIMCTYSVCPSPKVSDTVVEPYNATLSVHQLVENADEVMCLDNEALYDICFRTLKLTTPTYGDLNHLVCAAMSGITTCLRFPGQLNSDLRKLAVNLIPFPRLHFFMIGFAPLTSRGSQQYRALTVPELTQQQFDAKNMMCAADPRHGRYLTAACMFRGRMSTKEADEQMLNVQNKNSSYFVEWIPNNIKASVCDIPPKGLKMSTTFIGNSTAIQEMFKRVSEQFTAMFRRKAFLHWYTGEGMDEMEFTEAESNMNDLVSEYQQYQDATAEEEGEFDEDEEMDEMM
tubulin in Phytophthora capsici, sequence (A4ZYP4 entry or part of it, further chain): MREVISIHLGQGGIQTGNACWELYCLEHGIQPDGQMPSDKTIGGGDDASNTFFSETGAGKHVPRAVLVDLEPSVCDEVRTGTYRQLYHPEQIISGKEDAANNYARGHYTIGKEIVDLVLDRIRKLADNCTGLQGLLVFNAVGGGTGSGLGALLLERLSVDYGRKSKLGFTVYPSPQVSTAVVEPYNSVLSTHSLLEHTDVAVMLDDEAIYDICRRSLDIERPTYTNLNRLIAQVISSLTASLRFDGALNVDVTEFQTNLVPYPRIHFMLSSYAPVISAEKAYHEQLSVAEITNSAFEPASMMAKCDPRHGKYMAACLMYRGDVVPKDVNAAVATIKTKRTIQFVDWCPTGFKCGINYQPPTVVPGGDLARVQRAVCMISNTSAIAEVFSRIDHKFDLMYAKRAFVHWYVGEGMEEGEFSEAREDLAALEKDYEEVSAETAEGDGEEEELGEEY

SMILES: CC(C)C(C)(NC(=O)c1cc(Cl)cc(Cl)c1)C(=O)CCl (stereo not drawn) [Compound 27]
- IC50 [1]: 5440 nM

SMILES: CCOC(C#N)NC(=O)c1ccc(Cl)cc1 (stereo not drawn) [Zarilamide, zarilamide]
- IC50 (concentration required to inhibit binding of the radioligand by 50%) ([1]; 20 minutes with tritiated compound 1): 7.02 µg/mL

SMILES: CC(C)OC(=O)Nc1cccc(Cl)c1 [Chlorpropham, chlorpropham]
- Binding of radioligand (% control) ([2]; antitubulin compound 100 μM): 29.1 % control
- Effect on binding of the radioligand (in words) [2]: reduced binding of the radioligand

SMILES: CCCN(CCC)c1c([N+](=O)[O-])cc(C(F)(F)F)cc1[N+](=O)[O-] [Trifluralin, trifluralin]
- Binding of radioligand (% control) ([2]; antitubulin compound 100 μM): 129.0 % control
- Effect on binding of the radioligand (in words) [2]: increased binding of the radioligand

SMILES: CC(=O)O[C@H]1C(=O)[C@@]2(C)[C@H]([C@H](OC(=O)c3ccccc3)[C@]3(O)C[C@H](OC(=O)[C@H](O)[C@@H](NC(=O)c4ccccc4)c4ccccc4)C(C)=C1C3(C)C)[C@]1(OC(C)=O)CO[C@@H]1C[C@@H]2O [Paclitaxel, paclitaxel]
- Binding of radioligand (% control) ([3]; 0.1 μM): 37 % control
- Binding of radioligand (% control) ([3]; 1 μM): 19 % control
- Binding of radioligand (% control) ([3]; 10 μM): 6 % control
- Binding of radioligand (% control) ([3]; 100 μM): 4 % control
- Effect on binding of the radioligand (in words) ([3]; HCT-116, tritiated S-enantiomer of compound 2): reduced binding of the radioligand
- Binding of radioligand (% control) ([4]; 0.004 μM): 84.5 % control
- Binding of radioligand (% control) ([4]; 0.02 μM): 54.6 % control
- Binding of radioligand (% control) ([4]; 0.1 μM): 34.6 % control
- Binding of radioligand (% control) ([4]; 0.5 μM): 23.6 % control
- Binding of radioligand (% control) ([2]; antitubulin compound 25 μM): 50.3 % control
- Effect on binding of the radioligand (in words) [2]: reduced binding of the radioligand

SMILES: C#CC(C)(C)NC(=O)c1cc(Cl)cc(Cl)c1 [Pronamide, pronamide]
- Binding of radioligand (% control) ([2]; antitubulin compound 100 μM): 68.7 % control
- Effect on binding of the radioligand (in words) [2]: reduced binding of the radioligand

SMILES: CC(C)(NC(=O)c1cc(Cl)cc(Cl)c1)C(=O)CCl [Compound 19]
- IC50 [1]: 810 nM

The remaining lines, values ahead:

- IC50 [1]: 168 nM
SMILES: CCC(C)(NC(=O)c1cc(Cl)c(Cl)c(Cl)c1)C(=O)CCl (stereo not drawn) [Compound 23]

- IC50 [1]: 3760 nM
SMILES: CCC(C)(NC(=O)c1cccc(C=NOC)c1)C(=O)CCl (stereo not drawn) [Compound 16]

- IC50 [1]: 721 nM
SMILES: CCC(C)(NC(=O)c1cc(C)cc(Br)c1)C(=O)CCl (stereo not drawn) [Compound 8]

- IC50 [1]: 2840 nM
SMILES: CCC(C)(NC(=O)c1cc(Cl)cc(C=NOC)c1)C(=O)CCl (stereo not drawn) [Compound 7]
